Data as given in patent US20050107386A1, “Methods of treating diseases and disorders by targeting multiple kinases” (priority 2003, published 2005).

Legend:
[1] = test system: cancer cell lines: non-small cell lung (NSCLC); colon; pancreatic; head and neck; breast and ovarian cancers; experiment: Antiproliferative activity against a broad spectrum of cancer cell lines; assay type: cell-based; conditions: each of the cancer cell line types
From the text: (§1) CC001 is a low molecular weight mixed kinase inhibitor (MKI) with potent in vitro inhibitory activity against a variety of kinases.

[2] = test system: HCT-116 colon cancer cells; experiment: Activation of kinases and their downstream targets in HCT-116 cells; assay type: cell-based; conditions: concentration-dependent
From the text: as §1

[3] = test system: NCI-H460 NSCLC xenograft; experiment: NCI-H460 NSCLC xenograft model; assay type: in vivo; conditions: CC001 combined with the maximum tolerated dose of Taxotere
Method: A similar study was performed using an NCI-H460 NSCLC xenograft model in which CC001 was combined with the maximum tolerated dose of Taxotere (an anti-cancer compound related to taxol). […]. […]

[4] = test system: colon and lung tumors; experiment: SCID mice bearing colon and lung tumors; assay type: in vivo, mouse; conditions: 10 mg/kg to 20mg/kg twice a day, single agent
Method: SCID mice bearing colon and lung tumors were treated with CC001 at a concentration of 10 mg/kg to 20mg/kg, administered twice a day.

[5] = test system: cancer cell lines; experiment: In vitro combination studies with standard chemotherapeutic agents and signal transduction inhibitors; assay type: cell-based; conditions: with standard chemotherapeutic agents such as taxol, and novel signal transduction inhibitors
From the text: as §1

Compound: COc1ccc2cc(-c3n[nH]c4ccc(-c5n[nH]c(CN6CCOCC6)n5)cc34)ccc2c1 [CC001, 3-(6-Methoxynaphthalen-2-yl)-5-(5-Morpholin-4-Ylmethyl-1H-[1,2,4]Triazol-3-yl)-1H-Indazole]
- antiproliferative activity, IC50 values [1]: nanomolar range
- activation of kinases and their downstream targets [2]: inhibited the activation of kinases and their downstream targets
- T/C ratio [3]: 16-28%
- additional toxicity as evidenced by weight loss [3]: No apparent additional toxicity
- T/C ratio [4]: 40-60%
- tumor growth, in words [4]: inhibited tumor growth in a dose-dependent manner
- antiproliferative activity in combination [5]: additive and/or synergistic antiproliferative activity
